The values that follow are results of earlier work, collected in patent publication US20260014110A1, “RETINOIC ACID-ALCOHOL AMINE COMPLEX, PREPARATION METHOD AND APPLICATION THEREOF” (NANJING INDETEK LABORATORY CO., LTD., priority 2022, published 2026).

In brackets after ≈: the same amount, converted by molar mass. Where two headings read alike, the source gives them in different places.

Take `CC1=C(/C=C/C(C)=C/C=C/C(C)=C/C(=O)O)C(C)(C)CCC1` [retinoic acid]: the “solubility in water” value was “extremely difficult to dissolve in water” (Chinese Pharmacopoeia 2020, volume II) and 1.06 µM (≈ 0.318 µg/mL) (literature (Ascenso et al. 2011)).
